One assay addresses T1, human FPR1 receptors (Homo sapiens, UniProt P21462).
T1 sequence (P21462 1-350): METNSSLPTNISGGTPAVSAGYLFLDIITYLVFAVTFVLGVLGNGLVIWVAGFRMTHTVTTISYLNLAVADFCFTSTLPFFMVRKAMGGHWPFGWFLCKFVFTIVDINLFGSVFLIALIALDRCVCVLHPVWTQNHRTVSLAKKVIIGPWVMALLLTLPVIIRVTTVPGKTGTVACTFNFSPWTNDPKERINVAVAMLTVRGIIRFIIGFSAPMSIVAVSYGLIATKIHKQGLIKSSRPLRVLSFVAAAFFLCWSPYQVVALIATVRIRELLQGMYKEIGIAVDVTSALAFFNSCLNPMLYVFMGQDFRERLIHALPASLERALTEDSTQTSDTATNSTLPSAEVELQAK
As to the kind of experiment: FPR1 cAMP assay in CHO cells overexpressing human FPR1 (HTRF). Format: cell-based. The settings on record: forskolin 10 μM, inhibition of cAMP production, read-out: hFPR1 cAMP EC50. The source says: N-formyl peptide receptors (FPRs) are a family of chemo attractant receptors that facilitate leukocyte response during inflammation. FPRs belong to the seven-transmembrane G protein-coupled receptor superfamily and are linked to inhibitory G-proteins (Gi). Three family members (FPR1, FPR2 and FPR3) have been identified in humans and are predominantly found in myeloid cells with varied distribution and have also been reported in multiple organs and tissues. After agonist binding, the FPRs activate a multitude of physiological pathways, such as intra cellular signaling transduction, Ca^2+ mobilization and transcription. The family interacts with a diverse set of ligands that includes proteins, polypeptides and fatty acid metabolites which activate both pro-inflammatory and pro-resolution downstream responses. FPR2 and FPR1 Cyclic Adenosine Monophosphate (cAMP) Assays were used to measure the in vitro activity of the compounds disclosed in this application.
FPR2 and FPR1 Cyclic Adenosine Monophosphate (cAMP) Assays. A mixture of forskolin (5 μM final for FPR2 or 10 μM final for FPR1) and IBMX (200 μM final) were added to 384-well Proxiplates (Perkin-Elmer) pre-dotted with test compounds in DMSO (1% final) at final concentrations in the range of 0.020 nM to 100 μM. Chinese Hamster Ovary cells (CHO) overexpressing human FPR1 or human FPR2 receptors were cultured in F-12 (Ham's) medium supplemented with 10% qualified FBS, 250 μg/ml zeocin and 300 μg/ml hygromycin (Life Technologies). […] The level of intracellular cAMP was determined using the HTRF HiRange cAMP assay reagent kit (Cisbio) according to manufacturer's instruction. […] After a 1-h room temperature incubation, time-resolved fluorescence intensity was measured using the Envision (Perkin-Elmer) at 400 nm excitation and dual emission at 590 nm and 665 nm. […] The potency and activity of a compound to inhibit cAMP production was then determined by fitting to a 4-parametric logistic equation from a plot of cAMP level versus compound concentrations.
A general note: Cyclic AMP is a second messenger, typically raised through Gs and lowered through Gi signalling.

The target in a further assay is T2, human FPR2 receptors (Homo sapiens, UniProt P25090).
T2 sequence (P25090 1-351): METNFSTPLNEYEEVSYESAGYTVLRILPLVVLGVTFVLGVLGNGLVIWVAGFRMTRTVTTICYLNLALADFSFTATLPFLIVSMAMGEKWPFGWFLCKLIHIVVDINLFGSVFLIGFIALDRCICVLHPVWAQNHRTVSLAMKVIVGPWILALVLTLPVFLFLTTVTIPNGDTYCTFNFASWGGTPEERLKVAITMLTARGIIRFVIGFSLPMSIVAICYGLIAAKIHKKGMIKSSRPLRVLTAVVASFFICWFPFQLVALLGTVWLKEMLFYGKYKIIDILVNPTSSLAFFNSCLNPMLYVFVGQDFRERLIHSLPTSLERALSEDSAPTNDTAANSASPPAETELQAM
As to the kind of experiment: FPR2 cAMP assay in CHO cells overexpressing human FPR2 (HTRF). Format: cell-based. The settings on record: CHO cells overexpressing human FPR2; forskolin 5 μM; inhibition of cAMP production; read-out: hFPR2 cAMP2 EC50.

On to `COc1cc(F)c([C@@H]2CNC(=O)[C@H]2Nc2nnc(-c3ccc(SC(F)(F)F)cc3)o2)c(F)c1` [Example 18, (3S,4R)-4-(2,6-difluoro-4-methoxyphenyl)-3-[(5-{4-[(trifluoromethyl)sulfanyl]phenyl}-1,3,4-oxadiazol-2-yl)amino]pyrrolidin-2-one], for which the EC50 – broadly, the concentration at which the effect is half-maximal – came out at 160 nM on human FPR1 receptors and 6.7 nM on human FPR2 receptors.

Turning to `COc1cc(F)c([C@@H]2CNC(=O)[C@H]2Nc2cc(-c3ccc(C(F)F)cc3)on2)c(F)c1` [Example 22, (3S,4R)-4-(2,6-difluoro-4-methoxyphenyl)-3-({5-[4-(difluoromethyl)phenyl]-1,2-oxazol-3-yl}amino)pyrrolidin-2-one], the EC50 was 2900 nM at human FPR1 receptors and 890 nM on human FPR2 receptors.

On to `COc1cc(F)c([C@@H]2CNC(=O)[C@H]2Nc2nnc(-c3ccc(Oc4ccc(C(F)(F)F)nc4)cc3)o2)c(F)c1` [Example 58, (3S,4R)-4-(2,6-difluoro-4-methoxyphenyl)-3-{[5-(4-{[6-(trifluoromethyl)pyridin-3-yl]oxy}phenyl)-1,3,4-oxadiazol-2-yl]amino}pyrrolidin-2-one], for which the results for the EC50 at human FPR1 receptors and at human FPR2 receptors were 870 nM and 71 nM, respectively.

These data come from patent publication US12281108B2, “Pyrrolidinone derivatives as formyl peptide 2 receptor agonists” (BRISTOL-MYERS SQUIBB COMPANY, priority 2018, dated 2025).
